Common to all, as to experiment: in vitro antibacterial activity (MIC measuring method of Japanese Chemotherapeutic Association)
Common to all, as to type: cell-based

One assay deals with S. aureus 209P-JC. The conditions noted are these: Staphylococcus aureus, read-out: MIC value (minimum inhibitory concentration). As for the experimental part:
(§1) The in vitro antibacterial activity of the compounds of the present invention against various test bacteria was determined according to the MIC measuring method of Japanese Chemotherapeutic Association by using a sensitive disc media (available from Eiken Chemical Co.). 6-O-methylerythromycin A was used as a reference agent in Table 1, and erythromycin A in Table 2.

The next assay has as its system S. aureus J-109. The conditions noted are these: Staphylococcus aureus, J109, sensitive disc media, read-out: MIC value (minimum inhibitory concentration). As for the experimental part:
as §1

A further assay has as its system S. epidermides IID 866. Particulars: read-out: MIC value (minimum inhibitory concentration). As for the experimental part: as §1
The next assay has as its system S. aureus C1. The conditions noted are these: Staphylococcus aureus. As for the experimental part: as §1
The next assay concerns E. faecalis CSJ 1212. The conditions noted are these: Enterococcus faecalis. As for the experimental part:
as §1

Another assay deals with S. aureus Smith 4. The conditions noted are these: Staphylococcus aureus, SMITH4, sensitive disc media, read-out: MIC value (minimum inhibitory concentration). As for the experimental part: as §1
In another assay the test system is S. aureus B1. The conditions noted are these: Staphylococcus aureus. As for the experimental part: as §1
Where [1] appears, read: C1, read-out: MIC value (minimum inhibitory concentration).
[2] abbreviates: CSJ1212, read-out: MIC value (minimum inhibitory concentration).
[3] abbreviates: B1, read-out: MIC value (minimum inhibitory concentration).
The mark [4] stands for this setting: S. aureus 209P-JC, sensitive disc media.
[5] abbreviates: CSJ1212, E. faecalis CSJ 1212, sensitive disc media, read-out: MIC value (minimum inhibitory concentration).

This is an account of results in US5631354A, “5-O-desosaminylerythronolide derivatives” (Taisho Pharmaceutical Co., Ltd., priority 1991, dated 1997).

Structures are written as SMILES. Values after ≈ are worked out from the molar mass of the structure shown. Read-outs that look alike come from different tables or passages of the source. A value given as a limit tells only on which side of the number the result lay.

As for `CC[C@H]1OC(=O)[C@H](C)[C@@H](O[C@H]2C[C@@](C)(OC)[C@@H](O)[C@H](C)O2)[C@H](C)[C@@H](O[C@@H]2O[C@H](C)C[C@H](N(C)C)[C@H]2O)[C@](C)(O)C[C@@H](C)C(=O)[C@H](C)[C@@H](O)[C@]1(C)O` [erythromycin A, reference compound], the MIC was 0.1 µg/mL (≈ 0.136 µM) with S. aureus 209P-JC (209P); above 100 µg/mL in the assay with S. aureus J-109; 0.1 µg/mL (≈ 0.136 µM) with S. epidermides IID 866; above 100 µg/mL in the assay with S. aureus C1 (setting [1]); 0.78 µg/mL (≈ 1.06 µM) in the assay on E. faecalis CSJ 1212 (setting [2]); 0.2 µg/mL (≈ 0.273 µM) with S. aureus Smith 4. In addition, the MIC with S. aureus B1 (setting [3]) was above 100 µg/mL.

As for `CC[C@H]1OC(=O)[C@H](C)[C@@H](OC(=O)Cc2ccc([N+](=O)[O-])cc2)[C@H](C)[C@@H](O[C@@H]2O[C@H](C)C[C@H](N(C)C)[C@H]2O)[C@](C)(OC)C[C@@H](C)C(=NO)[C@H](C)[C@H]2OC(=O)O[C@@]21C` [Example 1, 3-O-(4-nitrophenyl)acetyl-5-O-desosaminyl-6-O-methylerythronolide A 9-oxime 11,12cyclic carbonate], the MIC in the assay with S. aureus 209P-JC (setting [4]) was 0.025 µg/mL (≈ 0.0315 µM); with S. aureus J-109, above 100 µg/mL; in the assay on S. epidermides IID 866, 0.05 µg/mL (≈ 0.063 µM); in the assay on S. aureus C1 (setting [1]), 0.1 µg/mL (≈ 0.126 µM); in the assay on E. faecalis CSJ 1212 (setting [5]), 0.05 µg/mL (≈ 0.063 µM); in the assay with S. aureus Smith 4 it was 0.05 µg/mL (≈ 0.063 µM). Besides, the MIC with S. aureus B1 (setting [3]) came to 0.1 µg/mL (≈ 0.126 µM).

Turning to `CC[C@H]1OC(=O)[C@H](C)[C@@H](OC(=O)Cc2ccc([N+](=O)[O-])cc2)[C@H](C)[C@@H](O[C@@H]2O[C@H](C)C[C@H](N(C)C)[C@H]2O)[C@](C)(OC)C[C@@H](C)C(=O)[C@H](C)[C@H]2OC(=O)O[C@@]21C` [Example 9, 3-O-(4-nitrophenyl)acetyl-5-O-desosaminyl-6-O-methylerythronolide A 11,12 cyclic carbonate], the MIC in the assay with S. aureus 209P-JC (setting [4]) is 0.025 µg/mL (≈ 0.0321 µM); in the assay with S. aureus J-109, above 100 µg/mL; with S. epidermides IID 866, 0.05 µg/mL (≈ 0.0642 µM); in the assay with S. aureus C1 (setting [1]), 0.05 µg/mL (≈ 0.0642 µM); in the assay on E. faecalis CSJ 1212 (setting [5]), 0.05 µg/mL (≈ 0.0642 µM); with S. aureus Smith 4, 0.05 µg/mL (≈ 0.0642 µM). Besides, in the assay with S. aureus B1 (S. aureus B1, sensitive disc media, read-out: MIC value (minimum inhibitory concentration)), the MIC was 0.2 µg/mL (≈ 0.257 µM).

As to `CC[C@H]1OC(=O)[C@H](C)[C@@H](OC(=O)Cc2ccc([N+](=O)[O-])cc2[N+](=O)[O-])[C@H](C)[C@@H](O[C@@H]2O[C@H](C)C[C@H](N(C)C)[C@H]2O)[C@](C)(OC)C[C@@H](C)C(=O)[C@H](C)[C@@H](O)[C@]1(C)O` [Example 3, 3-O-(2,4-dinitrophenyl)acetyl-5-O-desosaminyl-6-O-methylerythronolide A], the MIC was 0.05 µg/mL (≈ 0.0627 µM) with S. aureus 209P-JC (209P); above 100 µg/mL in the assay on S. aureus J-109; 0.1 µg/mL (≈ 0.125 µM) in the assay with S. epidermides IID 866; 0.1 µg/mL (≈ 0.125 µM) with S. aureus C1 (setting [1]); 0.1 µg/mL (≈ 0.125 µM) with E. faecalis CSJ 1212 (setting [2]); 0.1 µg/mL (≈ 0.125 µM) in the assay on S. aureus Smith 4. The MIC with S. aureus B1 (setting [3]) was determined as 0.2 µg/mL (≈ 0.251 µM).

Consider `CC[C@H]1OC(=O)[C@H](C)[C@@H](OC(=O)Cc2ccc([N+](=O)[O-])cc2)[C@H](C)[C@@H](O[C@@H]2O[C@H](C)C[C@H](N(C)C)[C@H]2O)[C@](C)(O)C[C@@H](C)C(=NO)[C@H](C)[C@H]2OC(=O)O[C@@]21C` [Example 15, 3-0-(4-nitrophenyl)acetyl-5-O-desosaminylerythronolide A 9-oxime 11,12-cyclic carbonate], for which the MIC with S. aureus 209P-JC (209P) was 0.05 µg/mL (≈ 0.0641 µM); with S. aureus J-109, above 100 µg/mL; in the assay on S. epidermides IID 866, 0.05 µg/mL (≈ 0.0641 µM); in the assay with S. aureus C1 (setting [1]), 0.78 µg/mL (≈ 1 µM); in the assay with E. faecalis CSJ 1212 (setting [5]) it was 0.05 µg/mL (≈ 0.0641 µM); in the assay with S. aureus Smith 4 it was 0.05 µg/mL (≈ 0.0641 µM). Besides, in the assay on S. aureus B1 (setting [3]), the MIC was 0.1 µg/mL (≈ 0.128 µM).

`CC[C@H]1OC(=O)[C@H](C)[C@@H](O[C@H]2C[C@@](C)(OC)[C@@H](O)[C@H](C)O2)[C@H](C)[C@@H](O[C@@H]2O[C@H](C)C[C@H](N(C)C)[C@H]2O)[C@](C)(OC)C[C@@H](C)C(=O)[C@H](C)[C@@H](O)[C@]1(C)O` [6-O-methylerythromycin A, reference compound]: the MIC in the assay on S. aureus 209P-JC (209P) was 0.05 µg/mL (≈ 0.0668 µM); with S. aureus J-109, above 100 µg/mL; with S. epidermides IID 866, 0.1 µg/mL (≈ 0.134 µM); with S. aureus C1 (S. aureus C1, sensitive disc media, read-out: MIC value (minimum inhibitory concentration)), 25 µg/mL (≈ 33.4 µM); in the assay on E. faecalis CSJ 1212 (setting [2]), 0.78 µg/mL (≈ 1.04 µM); with S. aureus Smith 4 it was 0.1 µg/mL (≈ 0.134 µM). The MIC in the assay with S. aureus B1 (setting [3]) is above 100 µg/mL.
